# Test results taken from EPA's ToxRefDB 2.
# Experiments:
# rat [1] = details: Subchronic oral toxicity in rodents, other, Feed, dose end: 3 month, group: systemic
# dog [2] = details: Subchronic oral toxicity in nonrodent, beagle, Capsule, dose end: 91 day, group: systemic
# mouse [3] = details: Carcinogenicity, other, Oral, Feed, dose end: 18 month, group: systemic
# rat [4] = details: Combined chronic toxicity/carcinogenicity, other, Oral, Feed, dose end: 2 year, group: systemic
# rat [5] = details: Multigenerational reproductive toxicity study, other, Oral, Feed, dose end: 2 generation
# rabbit = details: Prenatal developmental toxicity study, other, Oral, Gavage/Intubation, dose end: 19 GD
# dog [6] = details: Chronic toxicity; beagle; Oral; Capsule; dose end: 12 month; group: systemic; systemic / in life observation / clinical signs / fur (altered appearance) + systemic / in life observation / clinical signs / skin …
# rat [7] = details: Multigenerational reproductive toxicity study, sprague dawley, Oral, Feed, dose end: 2 generation
# dog [8] = details: Chronic toxicity, beagle, Oral, Feed, dose end: 15 month, group: systemic
# rat [9] = details: Combined chronic toxicity/carcinogenicity, wistar, Oral, Feed, dose end: 2 year, group: systemic
# rat [10] = details: Combined chronic toxicity/carcinogenicity, other, Oral, Feed, dose end: 2 year, group: systemic; remark: listed apart in the source
# rat [11] = details: Subchronic oral toxicity in rodents, wistar, Feed, dose end: 13 week, group: systemic, systemic / clinical chemistry / [other] / [other] + systemic / clinical chemistry / alkaline phosphatase (alp/alk) / alkaline phosphatase (…
# mouse [12] = details: Subchronic oral toxicity in rodents, other, Feed, dose end: 13 week, group: systemic
# mouse [13] = details: Carcinogenicity; other; Oral; Feed; dose end: 24 month; group: systemic; systemic / clinical chemistry / alkaline phosphatase (alp/alk) / alkaline phosphatase (alp/alk) + systemic / organ weight / heart / nos + …
# rat [14] = details: Carcinogenicity, fischer, Oral, Gavage/Intubation, dose end: 24 month, group: systemic
# rat [15] = details: Prenatal developmental toxicity study, fischer, Dermal, Topical, dose end: 15 GD, group: maternal
# mouse [16] = details: Carcinogenicity, b6c3f1, Oral, Gavage/Intubation, dose end: 18 month, group: systemic
# [17] = systemic / in life observation / body weight / body weight + systemic / pathology microscopic / liver / hypertrophy + systemic / pathology …
# [18] = systemic / in life observation / clinical signs / vomitting + systemic / organ weight / liver / relative to body weight + systemic / …
# [19] = systemic / in life observation / body weight / body weight + systemic / in life observation / body weight / body weight gain
# [20] = systemic / in life observation / body weight / body weight + systemic / in life observation / body weight / body weight gain + systemic / …
# [21] = systemic / in life observation / body weight / body weight + systemic / in life observation / body weight / body weight gain + systemic / in…
# [22] = group: offspring, systemic / in life observation / body weight / offspring (pup) weight
# [23] = group: offspring, systemic / in life observation / body weight / offspring (pup) weight + developmental / developmental landmark / eye opening / eye opening
# [24] = group: parental, systemic / pathology microscopic / kidney / pigmentation + systemic / pathology microscopic / spleen / erythrophagocytosis
# [25] = group: parental, systemic / pathology microscopic / kidney / pigmentation + systemic / pathology microscopic / spleen / erythrophagocytosis + systemic / in …
# [26] = group: developmental, developmental / developmental malformation / bone / fused
# [27] = group: maternal, systemic / in life observation / body weight / body weight gain + systemic / in life observation / food consumption / food consumption + …
# [28] = group: offspring, developmental / developmental landmark / eye opening / eye opening + developmental / developmental landmark / incisor eruption / incisor …
# [29] = group: offspring, systemic / organ weight / adrenal gland / absolute
# [30] = group: parental, systemic / organ weight / uterus / absolute
# [31] = systemic / pathology gross / liver / accentuated lobular pattern + systemic / pathology microscopic / liver / fatty change
# [32] = systemic / pathology gross / liver / accentuated lobular pattern + systemic / pathology microscopic / liver / fatty change + systemic / …
# [33] = systemic / clinical chemistry / albumin / albumin + systemic / clinical chemistry / alkaline phosphatase (alp/alk) / alkaline phosphatase (…
# [34] = systemic / pathology microscopic / lung / cholesterol cleft(s) + systemic / pathology microscopic / lung / foam cell aggregation
# [35] = systemic / pathology microscopic / lung / cholesterol cleft(s) + systemic / pathology microscopic / lung / foam cell aggregation + systemic…
# [36] = systemic / pathology microscopic / liver / necrosis
# [37] = systemic / pathology microscopic / liver / necrosis + systemic / clinical chemistry / [other] / [other] + systemic / pathology microscopic…
# [38] = systemic / in life observation / body weight / body weight gain + systemic / in life observation / clinical signs / labored respiration + …
# [39] = systemic / organ weight / stomach / relative to body weight + systemic / in life observation / body weight / body weight gain
# [40] = systemic / in life observation / clinical signs / scabbing
# [41] = systemic / organ weight / testes / relative to body weight
# [42] = systemic / organ weight / testes / relative to body weight + systemic / pathology microscopic / liver / carcinoma + systemic / hematology / …
structure (smiles),measurement,setting,value
CO/N=C(/C(=O)OC)c1ccccc1CO/N=C(\C)c1cccc(C(F)(F)F)c1 [Trifloxystrobin],NEL,rat [1]; systemic / clinical chemistry / urea nitrogen / urea + systemic / urinalysis / ph / ph + systemic / clinical chemistry / glucose / glucose…,618 mg/kg/day
same,LOAEL,rat [1]; [17],127 mg/kg/day
same,NOAEL,rat [1]; [17],30.6 mg/kg/day
same,LEL,dog [2]; systemic / clinical chemistry / bilirubin / total bilirubin,30 mg/kg/day
same,LOAEL,dog [2]; [18],150 mg/kg/day
same,NEL,dog [2]; [18],5 mg/kg/day
same,NOAEL,dog [2]; [18],30 mg/kg/day
same,LEL,mouse [3]; [19],35.7 mg/kg/day
same,LOAEL,mouse [3]; [19],35.7 mg/kg/day
same,NEL,mouse [3]; [20],3.51 mg/kg/day
same,NOAEL,mouse [3]; [20],3.51 mg/kg/day
same,LEL,rat [4]; [19],29.7 mg/kg/day
same,LOAEL,rat [4]; [19],29.7 mg/kg/day
same,NEL,rat [4]; [21],9.81 mg/kg/day
same,NOAEL,rat [4]; [21],9.81 mg/kg/day
same,LEL,rat [5]; [22],65.5 mg/kg/day
same,LOAEL,rat [5]; [22],65.5 mg/kg/day
same,NEL,rat [5]; [23],4.2 mg/kg/day
same,NOAEL,rat [5]; [23],4.2 mg/kg/day
same,LEL,rat [5]; [24],55.3 mg/kg/day
same,LOAEL,rat [5]; [24],55.3 mg/kg/day
same,NEL,rat [5]; [25],3.8 mg/kg/day
same,NOAEL,rat [5]; [25],3.8 mg/kg/day
same,LEL,rabbit; [26],500 mg/kg/day
same,LOAEL,rabbit; [26],500 mg/kg/day
same,NEL,rabbit; [26],250 mg/kg/day
same,NOAEL,rabbit; [26],250 mg/kg/day
same,LEL,rabbit; [27],50 mg/kg/day
same,LOAEL,rabbit; [27],50 mg/kg/day
same,NEL,rabbit; [27],10 mg/kg/day
same,NOAEL,rabbit; [27],10 mg/kg/day
same,LEL,dog [6],50 mg/kg/day
same,LOAEL,dog [6],50 mg/kg/day
same,NEL,dog [6],5 mg/kg/day
same,NOAEL,dog [6],5 mg/kg/day
COC(=O)C(C)Oc1ccc(Oc2ccc(Cl)cc2Cl)cc1 (configuration not stated) [Diclofop-methyl],LOAEL,rat [7]; [28],7.3 mg/kg/day
same,NOAEL,rat [7]; [28],2.1 mg/kg/day
same,LEL,rat [7]; [29],0.9 mg/kg/day
same,NEL,rat [7]; [29],< 0.9 mg/kg/day
same,LOAEL,"rat [7]; group: parental, systemic / organ weight / liver / absolute + systemic / organ weight / liver / relative to body weight",2.1 mg/kg/day
same,NOAEL,"rat [7]; group: parental, systemic / organ weight / liver / absolute + systemic / organ weight / liver / relative to body weight + systemic / organ weight / kidney / …",0.7 mg/kg/day
same,LEL,rat [7]; [30],0.9 mg/kg/day
same,NEL,rat [7]; [30],< 0.9 mg/kg/day
same,LEL,dog [8]; [31],0.625 mg/kg/day
same,LOAEL,dog [8]; [31],0.625 mg/kg/day
same,NEL,dog [8]; [32],0.2 mg/kg/day
same,NOAEL,dog [8]; [32],0.2 mg/kg/day
same,LEL,rat [9]; [33],2.3 mg/kg/day
same,LOAEL,rat [9]; [33],2.3 mg/kg/day
same,NOAEL,rat [9]; [33],0.23 mg/kg/day
same,NEL,rat [9]; systemic / hematology / hemoglobin (hgb) / hemoglobin (hgb) + systemic / hematology / erythrocyte (rbc) count differential / erythrocyte (…,0.23 mg/kg/day
same,LEL,rat [10]; [34],0.32 mg/kg/day
same,LOAEL,rat [10]; [34],0.32 mg/kg/day
same,NEL,rat [10]; [35],0.1 mg/kg/day
same,NOAEL,rat [10]; [35],0.1 mg/kg/day
same,LEL,rat [11],6.32 mg/kg/day
same,LOAEL,rat [11],6.32 mg/kg/day
same,NOAEL,rat [11],1.56 mg/kg/day
same,LEL,mouse [12]; [36],0.3 mg/kg/day
same,NEL,mouse [12]; [36],< 0.3 mg/kg/day
same,LOAEL,mouse [12]; [37],1 mg/kg/day
same,NOAEL,mouse [12]; [37],0.3 mg/kg/day
same,LEL,mouse [13],0.76 mg/kg/day
same,LOAEL,mouse [13],0.76 mg/kg/day
same,NEL,mouse [13],0.24 mg/kg/day
same,NOAEL,mouse [13],0.24 mg/kg/day
CCCCC(CC)CO (configuration not stated) [2-Ethyl-1-hexanol],LOAEL,rat [14]; [38],> 500 mg/kg/day
same,NOAEL,rat [14]; [38],≥ 500 mg/kg/day
same,LEL,rat [14]; [39],50 mg/kg/day
same,NEL,rat [14]; [39],< 50 mg/kg/day
same,LOAEL,rat [15]; systemic / in life observation / clinical signs / erythema + systemic / in life observation / clinical signs / scabbing + systemic / …,840 mg/kg/day
same,LEL,rat [15]; [40],252 mg/kg/day
same,NEL,rat [15]; [40],< 252 mg/kg/day
same,LEL,mouse [16]; [41],50 mg/kg/day
same,NEL,mouse [16]; [41],< 50 mg/kg/day
same,LOAEL,mouse [16]; [42],> 750 mg/kg/day
same,NOAEL,mouse [16]; [42],≥ 750 mg/kg/day
